According to patent publication EP0799614A1, “REMEDY FOR ISCHEMIC DISEASES” (CHUGAI SEIYAKU KABUSHIKI KAISHA, priority 1994, dated 1996):
Read-outs that look alike come from different tables or passages of the source.

What was measured:
thoracic aorta = assay: Vasorelaxing action in vitro: relaxation of 30 mM K+ contraction of aortic rings; assay type: cell-based, Sprague-Dawley (Crj) male rat; conditions: contraction at 30 mM K+ taken as 100%
Experimental: The thoracic aorta was excised from a Sprague-Dawley (Crj) male rat weighing between 350 and 550 g, and dissected free from surrounding connective tissue. The vessel was cut into a ring having a width of 2 to 3 mm. The resulting preparation was mounted for isometric tension recording in an organ bath filled with 10 ml of a Krebs-Henseleit solution (K-H solution, pH 7.4, 37°C), which was bubbled with 95% 02/5% CO2. Isometric tension changes were monitored with an isometric tranducer (TB-611T, manufactured by Nihon Kohden Corp.). Before starting the experiment, the preparation was given a stretched tension of 2 g and allowed to equilibrate for 30 minutes (the K-H solution was exchanged for a fresh one every 15 minutes). At first, the preparation was precontracted by changing the solution in the bath to one containing 30 mM K^+. After the contraction was maintained for 20 minutes, the preparation was washed with K-H solution. Sixty minutes thereafter (the K-H solution was exchanged with a fresh one every 20 minutes), contraction was again induced in the same manner as described above. […]

[1] = test system: Isolated ventricular myocytes; assay: Inhibitory action on calcium overload in vitro, Method B: veratridine-treated myocytes; assay type: cell-based, male Sprague-Dawley rat; conditions: veratridine 50 µg/ml, read-out: Concentration at Which Cells Survived Almost Completely
Experimental: (§1) Isolated ventricular myocytes were prepared from the heart of male Sprague-Dawley rat weighing 300 to 500 g, using an enzyme-perfusion method. […]
The efficacy was evaluated in the same manner as in Method A, except for using 50 µg/ml of veratridine in place of veratrine (100 µg/ml).

rabbit LDL = assay: Inhibitory action on lipid peroxidation in vitro, Method A: oxidation of LDL by soybean lipoxygenase, fluorescence of LDL fraction; assay type: biochemical; conditions: fluorescence intensity of oxidized LDL fraction, SLO 40 µg/ml, 37°C, 24 hours
Experimental: A test compound was added to rabbit LDL prepared according to the method of Havel, et al. (Havel RJ et al., J. Clin. Invest., 34, 1345 (1955)), and then a soybean lipoxygenase type-IS (SLO) was added to a final concentration of 40 µg/ml. Oxidation of LDL was carried out at 37°C in a CO2 incubator for 24 hours. The oxidized LDL solution was separated by gel-permeation chromatography, and the fluorescence intensity of the LDL fraction was measured at an excitation wavelength of 360 nm and an emission wavelength of 430 nm.

[2] = test system: Isolated ventricular myocytes; assay: Inhibitory action on calcium overload in vitro, Method A: veratrine-treated myocytes, survival rate; assay type: cell-based, male Sprague-Dawley rat; set-up: key: ++: The cells survived almost completely at 10^-7 M.; +: The cells survived almost completely at 10^-6 M.; The cells died almost completely at 10 M^-6 M; conditions: 30 minutes pretreatment, veratrine 100 µg/ml, observed five minutes later
Experimental: as §1

[3] = test system: Thoracic aorta preparations from rats; assay: Vasorelaxing action in vitro: effect on CaCl2-induced contractions; assay type: cell-based; conditions: Fig. 1; CaCl2 0.01 - 10 mM in 60 mM K+ PSS; compared with diltiazem
Experimental: Thoracic aorta preparations from rats were stabilized in normal physiological salt solution (PSS) for at least 30 min, contracted with 60 mM KCl and, thereafter, relaxed with normal PSS. Twenty minutes later, the preparations were exposed to Ca^2+ -free 60 mM K^+ PSS (containing 0.1 mM EGTA) for 20 min, then to nominally Ca^2+ -free 60 mM K^+ PSS which is free of EGTA for 20 min, followed by cumulative application of CaCl2 (0.01 - 10 mM) to construct a dose-response curve. […] The response was converted to percent contraction, with the contraction caused by 10 mM CaCl2 being taken as 100%. The data in Fig. 1 are expressed by the mean of 5 cases ± standard error.

[4] = test system: coronary preparations from dogs; assay: Antispasmodic action in vitro: 3,4-diaminopyridine-induced rhythmic contractions; assay type: cell-based; conditions: Fig. 2; 3,4-DAP 10 mM; compared with diltiazem
Experimental: Following repeated replacements of PSS in an organ bath at 15-min intervals, the tension on each of the coronary preparations from dogs stabilized at 2 g; then, PSS was replaced by a 30 mM K^+ PSS to contract the preparations. The 30mM K^+ PSS was replaced by normal PSS in an organ bath to relax the preparations, followed by replacements with PSS at 20-min intervals to stabilize the tension for about 1 h, followed by the addition of 3,4-DAP (10 mM) to induce rhythmic contractions. […] The drug concentration allowing for complete suppression of the amplitude of the 3,4-DAP-induced rhythmic contractions may be designated "elimination dose".

Male Sprague-Dawley rats = assay: Preventive effect on ventricular arrhythmia caused by occlusion and reperfusion of the coronary artery; assay type: in vivo; conditions: Fig. 4; 0.5, 1 and 3 mg/kg via femoral vein 10 min before occlusion; compared with diltiazem 1 and 3 mg/kg
Experimental: Male Sprague-Dawley rats (450 - 600 g) were anethetized with pentobarbital, subjected to thoracotomy under artificial respiration, had the arterior descending branch of the left coronary artery occluded with a silk ligature for 5 min, had the occlusion removed to permit reperfusion and examined for 10 min. A standard limb lead II electrocardiogram was recorded to check for the occurrence of ventricular arrythmia. […] The parethesized numeral at the bottom of each bar in Fig. 4 represents the number of cases.

| IC50 (thoracic aorta; Rattus norvegicus) | SMILES | IC50 (thoracic aorta) | Survival Rate of Cells [2] | other results |
| --- | --- | --- | --- | --- |
|  | CC1SC(c2cc(C(C)(C)C)c(O)c(C(C)(C)C)c2)N(CCCN(C)CCOc2ccc3c(c2)OCO3)C1=O (single isomer, unassigned; (-)) [Compound 75, (-)-2,5-Cis-2-[3,5-di-tert-butyl-4-hydroxyphenyl)-3-[3-[N-methyl-N-[2-(3,4-methylenedioxyphenoxy)ethyl]amino]propyl]-5-methyl-1,3-thiazolidin-4-one] | 22 nM |  | minimal effective concentration [1]: 0.32 µM |
| 21 nM | CN(CCCN1C(=O)C(OCCO)SC1c1cc(C(C)(C)C)c(O)c(C(C)(C)C)c1)CCOc1ccc2c(c1)OCO2 (centres unmarked) [Compound 55] |  |  |  |
|  | COc1ccc(CCN(C)CCCN2C(=O)CSC2c2cc(C(C)(C)C)c(O)c(C(C)(C)C)c2)cc1OC (centres unmarked) [Compound 20] |  | + | Percent (%) of Control (rabbit LDL; 5 x 10^-6 M): 0.6%; Percent (%) of Control (rabbit LDL; 5 x 10^-7 M, 0.5 µM): 8.7% |
|  | CN(CCCN1C(=O)CSC1c1cc(C(C)(C)C)c(O)c(C(C)(C)C)c1)CCOc1ccc2c(c1)OCO2 (single isomer, unassigned; (-)) [Compound 71, (-)-2-(3,5-Di-tert-butyl-4-hydroxyphenyl)-3-[3-[N-methyl-N-[2-(3,4-methylenedioxyphenoxy)ethyl]amino]propyl]-1,3-thiazolidin-4-one] | 27 nM |  | Percent (%) of Control (rabbit LDL; 5 x 10^-6 M, 5 µM): 2.8%; minimal effective concentration [1]: 0.32 µM; inhibitory action against the contraction caused by CaCl2 [3]: need be applied in a by far smaller amount than diltiazem to exhibit an outstanding inhibitory action; suppression of 3,4-DAP-induced rhythmic contractions [4]: capable of suppressing the 3,4-DAP-induced rhythmic contractions at a lower concentration than diltiazem |
|  | CN(CCCN1C(=O)CSC1c1cc(C(C)(C)C)c(O)c(C(C)(C)C)c1)CCOc1ccc2c(c1)OCO2 (single isomer, unassigned; (+)) [Compound 70, (+)-2-(3,5-Di-tert-butyl-4-hydroxyphenyl)-3-[3-[N-methyl-N-[2-(3,4-methylenedioxyphenoxy)ethyl]amino]propyl]-1,3-thiazolidin-4-one] | 300 nM |  | Percent (%) of Control (rabbit LDL; 5 x 10^-6 M, 5 µM): 5.1%; minimal effective concentration ([1]; Rattus norvegicus, Ventricular myocyte): 0.32 µM |
|  | CC1SC(c2cc(C(C)(C)C)c(O)c(C(C)(C)C)c2)N(CCCN(C)CCOc2ccc3c(c2)OCO3)C1=O (centres unmarked) [Compound 41, 2-(3,5-Di-tert-butyl-4-hydroxyphenyl)-3-[3-[N-methyl-N-[2-(3,4-methylenedioxyphenoxy)ethyl]amino]propyl]-5-methyl-1,3-thiazolidin-4-one] | 56 nM |  | Percent (%) of Control (rabbit LDL; 5 x 10^-6 M): 6.2% |
| 28 nM | CN(CCCOc1ccc2c(c1)OCO2)CCCN1C(=O)CSC1c1cc(C(C)(C)C)c(O)c(C(C)(C)C)c1 (centres unmarked) [Compound 17] |  |  | Percent (%) of Control (rabbit LDL; 5 x 10^-6 M): 3.9% |
| 170 nM | CC(C)c1cc(C2SCC(=O)N2CCCN(C)CCOc2ccc3c(c2)OCO3)cc(C(C)C)c1O (centres unmarked) [Compound 1, 2-(3,5-Diisopropyl-4-hydroxyphenyl)-3-[3-[N-methyl-N-[2-(3,4-methylenedioxyphenoxy)ethyl]amino]propyl]-1,3-thiazolidin-4-one] |  |  |  |
|  | CC1SC(c2cc(C(C)(C)C)c(O)c(C(C)(C)C)c2)N(CCCN(C)CCOc2ccc3c(c2)OCO3)C1=O (stereo not drawn) [Compound 73, 2,5-Cis-2-(3,5-di-tert-butyl-4-hydroxyphenyl)-3-[3-[N-methyl-N-[2-(3,4-methylenedioxyphenoxy)ethyl]amino]propyl]-5-methyl-1,3-thiazolidin-4-one] | 49 nM |  | minimal effective concentration [1]: 0.32 µM |
|  | COc1ccc([C@@H]2Sc3ccccc3N(CCN(C)C)C(=O)[C@@H]2OC(C)=O)cc1 [Diltiazem, reference compound] |  | - |  |
| 23 nM | CN(CCCN1C(=O)C(CCO)SC1c1cc(C(C)(C)C)c(O)c(C(C)(C)C)c1)CCOc1ccc2c(c1)OCO2 (centres unmarked) [Compound 49, 2-(3,5-Di-tert-butyl-4-hydroxyphenyl)-3-[3-[N-methyl-N-[2-(3,4-methylenedioxyphenoxy)ethyl]amino]propyl]-5-(2-hydroxyethyl)-1,3-thiazolidin-4-one] |  |  |  |
|  | CC1SC(c2cc(C(C)(C)C)c(O)c(C(C)(C)C)c2)N(CCCN(C)CCOc2ccc3c(c2)OCO3)C1=O (single isomer, unassigned; (+)) [Compound 74, (+)-2,5-Cis-2-[3,5-di-tert-butyl-4-hydroxyphenyl)-3-[3-[N-methyl-N-[2-(3,4-methylenedioxyphenoxy)ethyl]amino]propyl]-5-methyl-1,3-thiazolidin-4-one] | 141 nM |  |  |
|  | CN(CCCN1C(=O)CSC1c1cc(C(C)(C)C)c(O)c(C(C)(C)C)c1)CCOc1ccc2c(c1)OCO2 (centres unmarked) [Compound 26, 2-(3,5-Di-tert-butyl-4-hydroxyphenyl)-3-[3-[N-methyl-N-[2-(3,4-methylenedioxyphenoxy)ethyl]amino]propyl]-1,3-thiazolidin-4-one] | 37 nM | ++ | incidence of arrhythmia (Male Sprague-Dawley rats): by far superior effect to diltiazem in decreasing the incidnece of arrhythmia |
| 21 nM | COc1c(C(C)(C)C)cc(C2SCC(=O)N2CCCN(C)CCOc2ccc3c(c2)OCO3)cc1C(C)(C)C (centres unmarked) [Compound 11] |  |  |  |
| 110 nM | COc1ccc(CN(C)CCCN2C(=O)CSC2c2cc(C(C)(C)C)c(O)c(C(C)(C)C)c2)cc1OC (centres unmarked) [Compound 19] |  |  |  |

| SMILES | IC50 (thoracic aorta; Rattus norvegicus) | IC50 (thoracic aorta) | Survival Rate of Cells [2] | other results |
| --- | --- | --- | --- | --- |
| CN(CCCCN1C(=O)CSC1c1cc(C(C)(C)C)c(O)c(C(C)(C)C)c1)CCOc1ccc2c(c1)OCO2 (centres unmarked) [Compound 8] | 170 nM |  | ++ |  |
| CCN(CCCN1C(=O)CSC1c1cc(C(C)(C)C)c(O)c(C(C)(C)C)c1)CCOc1ccc2c(c1)OCO2 (centres unmarked) [Compound 12] | 63 nM |  | ++ | Percent (%) of Control (rabbit LDL; 5 x 10^-6 M): 6.4% |
| CC1SC(c2cc(C(C)(C)C)c(O)c(C(C)(C)C)c2)N(CCCN(C)CCOc2ccc3c(c2)OCO3)C1=O (stereo not drawn) [Compound 72, 2,5-Trans-2-(3,5-di-tert-butyl-4-hydroxyphenyl)-3-[3-[N-methyl-[2-(3,4-methylenedioxyphenoxy)ethyl]amino]propyl]-5-methyl-1,3-thiazolidin-4-one] | 98 nM |  |  |  |
| CN(CCCCCN1C(=O)CSC1c1cc(C(C)(C)C)c(O)c(C(C)(C)C)c1)CCOc1ccc2c(c1)OCO2 (centres unmarked) [Compound 9] | 28 nM |  | ++ | Percent (%) of Control (rabbit LDL; 5 x 10^-6 M): 5.9% |
